Results: patent publication US7705156B2, “Heteroaryl (substituted)alkyl N-substituted sulfoximines as insecticides” (Dow AgroSciences LLC, priority 2006, dated 2010)
Where two headings read alike, the source gives them in different places.

Assays:
[1] = test system: Cotton Aphid (Aphis gossvpii); experiment: Insecticidal test for cotton aphid in foliar spray assay; type: in vivo; conditions: for pest or weed control at 50 ppm / pest or weed control at 200 ppm: 72 h; for pest or weed control at 50 ppm: read-out: CA 50: % control at 50 ppm against cotton aphid in foliar spray tests; for pest or weed control at 200 ppm: read-out: CA 200: % control at 200 ppm against cotton aphid in foliar spray tests; for % Control at ppm against cotton aphid on squash, foliar spray, 0.781 ppm / % Control at ppm against cotton aphid on squash, foliar spray, 3.125 ppm / % Control at ppm against cotton aphid on squash, foliar spray, 12.5 ppm / % Control at ppm against cotton aphid on squash, foliar spray, 50 ppm: rundown assay
Experimental: Insecticidal Test for Cotton Aphid (Aphis gossvpii) in Foliar Spray Assay
Squash with fully expanded cotyledon leaves were trimmed to one cotyledon per plant and infested with cotton aphid (wingless adult and nymph) 1 day prior to chemical application. Each plant was examined before chemical application to ensure proper infestation (ca. 30-70 aphids per plant). Compounds (2 mg) were dissolved in 2 ml of acetone:methanol (1:1) solvent, forming stock solutions of 1000 ppm. The stock solutions were diluted 5× with 0.025% Tween 20 in H2O to obtain the highest test solution at 200 ppm. Lower test concentrations (50, 12.5, 3.13 and 0.78 ppm) were prepared by making sequential 4× dilutions from the 200 ppm solution with a diluent consisting 80 parts of 0.025% Tween 20 in H2O and 20 parts of acetone:methanol (1:1). A hand-held Devilbiss sprayer was used to apply the spray solutions until runoff to both sides of the squash cotyledon leaves. Four plants (4 replications) were used for each concentration of each compound. Reference plants (solvent check) were sprayed with the diluent only. Treated plants were held in a holding room for 3 days at approximately 23° C. and 40% RH before the number of live aphids on each plant was recorded. Insecticidal activity was measured by Corrected % Control using Abbott's correction formula and the values for the lower test concentrations are presented in Table 2: Corrected % Control=100*(X−Y)/X • where X=No. of live aphids on solvent check plants • Y=No. of live aphids on treated plants Insecticidal Test for Green Peach Aphid (Myzus persicae) in Foliar Spray Assay

[2] = test system: Green Peach Aphid (Myzus persicae); experiment: Insecticidal test for green peach aphid in foliar spray assay; type: in vivo; conditions: 72 h, foliar spray on cabbage seedlings, 3 days, Abbott-corrected; for pest or weed control at 200 ppm: read-out: GPA 200: % control at 200 ppm against green peach aphid in foliar spray tests; for pest or weed control at 50 ppm: read-out: GPA 50: % control at 50 ppm against green peach aphid in foliar spray tests
Experimental: Cabbage seedlings grown in 3-inch pots, with 2-3 small (3-5 cm) true leaves, were used as test substrate. The seedlings were infested with 20-50 green peach aphids (wingless adult and nymph) 2-3 days prior to chemical application. Four seedlings were used for each treatment. Compounds (2 mg) were dissolved in 2 ml of acetone:methanol (1:1) solvent, forming stock solutions of 1000 ppm. The stock solutions were diluted 5× with 0.025% Tween 20 in H2O to obtain the highest test solution at 200 ppm. A lower test concentration of 50 ppm was prepared by making a 4× dilution from the 200 ppm solution with a diluent consisting 80 parts of 0.025% Tween 20 in H2O and 20 parts of acetone: methanol (1:1). A hand-held Devilbiss sprayer was used for spraying a solution to both sides of cabbage leaves until runoff. Reference plants (solvent check) were sprayed with the diluent only. Treated plants were held in a holding room for three days at approximately 23° C. and 40% RH prior to grading. Evaluation was conducted by counting the number of live aphids per plant under a microscope. Insecticidal activity was measured by using Abbott's correction formula: Corrected % Control=100*(X−Y)/X • where X=No. of live aphids on solvent check plants • Y=No. of live aphids on treated plants The Corrected % Control values from the above assays are given in Table 2

[3] = 50 ppm, foliar spray on squash, 3 days, Abbott-corrected
[4] = 200 ppm, foliar spray on squash, 3 days, Abbott-corrected

Compound | pest or weed control at 50 ppm [1, 3] | pest or weed control at 200 ppm [1, 4] | pest or weed control at 200 ppm [2] | % Control at ppm against cotton aphid on squash, foliar spray, 0.781 ppm [1] | % Control at ppm against cotton aphid on squash, foliar spray, 3.125 ppm [1] | % Control at ppm against cotton aphid on squash, foliar spray, 12.5 ppm [1] | % Control at ppm against cotton aphid on squash, foliar spray, 50 ppm ([1]; 50 ppm) | pest or weed control at 50 ppm [2] | pest or weed control at 50 ppm ([1]; foliar) | pest or weed control at 200 ppm ([1]; foliar)
C#CCC(c1ccc(Cl)nc1)S(C)(=O)=NC#N (stereo not shown) [Compound 14] | 90 to 100% | 90 to 100% |  |  |  |  |  |  |  | 
COc1ccc(CC(c2ccc(Cl)nc2)S(C)(=O)=NC#N)cc1 (stereo not shown) [Compound 8] | 90 to 100% | 90 to 100% |  |  |  |  |  |  |  | 
CS(=O)(=NC#N)C1CCC(c2ccc(Cl)nc2)C1 (stereo not drawn) [Compound 4, cis and trans-[3-(6-chloropyridin-3-yl)cyclopentyl]-(methyl)oxido-λ^4-sulfanylidenecyanamide] | 70 to 79% | 90 to 100% | 80 to 89% |  |  |  |  |  |  | 
CS(=O)(=NC#N)C(C/C=C/Cl)c1ccc(C(F)(F)F)nc1 (stereo not shown) [Compound 17] | 90 to 100% | 90 to 100% | 90 to 100% | D (60-69) | B (80-89) | A (90-100) | A (90-100) | 70 to 79% |  | 
CS(=O)(=NC#N)C(C/C=C/Cl)c1ccc(Cl)nc1 (stereo not shown) [Compound 15] | 90 to 100% | 90 to 100% |  |  |  |  |  |  |  | 
CS(=O)(=NC#N)C(Cc1ccc(Cl)cc1)c1ccc(Cl)nc1 (stereo not shown) [Compound 7] | 90 to 100% | 90 to 100% |  |  |  |  |  |  |  | 
COCCC(c1ccc(Cl)nc1)S(C)(=O)=NC#N (stereo not shown) [Compound 10] | 90 to 100% | 90 to 100% | 60 to 69% |  |  |  |  |  |  | 
CS(=O)(=NC#N)C(CC1CC1)c1ccc(Cl)nc1 (stereo not shown) [Compound 13] | 90 to 100% | 90 to 100% |  |  |  |  |  |  |  | 
CS(=O)(=NC#N)C(CC1CC1)c1ccc(C(F)(F)F)nc1 (stereo not shown) [Compound 2, {1-[6-(trifluoromethyl)pyridin-3-yl]-2-(cyclopropyl)ethyl}(methyl)oxido-λ^4-sulfanylidenecyanamide] | 90 to 100% | 90 to 100% | 70 to 79% | C (70-79) | A (90-100) | A (90-100) | A (90-100) |  |  | 
CS(=O)(=NC#N)C(Cc1ccc(Cl)nc1)c1ccc(Cl)nc1 (stereo not shown) [Compound 6] | 90 to 100% | 90 to 100% |  |  |  |  |  |  |  | 
COCC(COC)(c1ccc(Cl)nc1)S(C)(=O)=NC#N (stereo not shown) [Compound 11] | 90 to 100% | 90 to 100% |  |  |  |  |  |  |  | 
CS(=O)(=NC#N)C(Cc1cscn1)c1ccc(Cl)nc1 (stereo not shown) [Compound 1, [1-(6-chloropyridin-3-yl)-2-(1,3-thiazol-4-yl)ethyl](methyl)oxido-λ^4-sulfanylidenecyanamide] |  |  |  |  |  |  |  |  | 90 to 100% | 90 to 100%
CS(=O)(=NC#N)[C@@H]1CCC[C@@H]1c1ccc(Cl)nc1 (stereo partly drawn) [Compound 3, cis-[2-(6-chloropyridin-3-yl)cyclopentyl](methyl)-oxido-λ^4-sulfanylidenecyanamide] |  | 60 to 69% | 60 to 69% |  |  |  |  |  |  | 
CC(C)C(c1ccc(Cl)nc1)S(C)(=O)=NC#N (stereo not shown) [Compound 9] | 90 to 100% | 90 to 100% |  |  |  |  |  |  |  | 
CC(C)C(c1ccc(C(F)(F)F)nc1)S(C)(=O)=NC#N (stereo not shown) [Compound 18] | 90 to 100% | 90 to 100% | 90 to 100% | A (90-100) | A (90-100) | A (90-100) | A (90-100) | 60 to 69% |  | 
N#CN=S1(=O)CCC(c2ccc(C(F)(F)F)nc2)C1 (stereo not shown) [Compound 5, 1-oxido-3-[6-(trifluoromethyl)pyridin-3-yl]tetrahydro-1H-1λ^4-thien-1-ylidenecyanamide] | 90 to 100% | 90 to 100% | 80 to 89% | F (Less than 50) | C (70-79) | A (90-100) | A (90-100) | 50 to 59% |  | 
C#CCC(c1ccc(C(F)(F)F)nc1)S(C)(=O)=NC#N (stereo not shown) [Compound 16] | 90 to 100% | 90 to 100% | 90 to 100% | B (80-89) | A (90-100) | A (90-100) | A (90-100) | 80 to 89% |  | 
CS(=O)(=NC#N)C(CCF)c1ccc(Cl)nc1 (stereo not shown) [Compound 12] | 90 to 100% | 90 to 100% | 90 to 100% | A (90-100) | A (90-100) | A (90-100) | A (90-100) | 90 to 100% |  | 
